Measurements reported in patent US20100197591A1, “4-AMINO-7,8-DIHYDROPYRIDO[4,3-d]PYRIMIDIN-5(6H)-ONE DERIVATIVES” (pfizer Inc, priority 2009, published 2010).

Molecular target: T1, Human full-length diacylglycerol:acylCoA acyltransferase 1 (DGAT-1) (Homo sapiens, UniProt O75907)
T1 construct: Human full-length diacylglycerol:acylCoA acyltransferase 1 (DGAT-1) was expressed in Sf9 insect cells; made in house; host or cells: Sf9 insect cells (baculovirus); crude membrane/microsome fraction
T1 sequence (O75907 1-488): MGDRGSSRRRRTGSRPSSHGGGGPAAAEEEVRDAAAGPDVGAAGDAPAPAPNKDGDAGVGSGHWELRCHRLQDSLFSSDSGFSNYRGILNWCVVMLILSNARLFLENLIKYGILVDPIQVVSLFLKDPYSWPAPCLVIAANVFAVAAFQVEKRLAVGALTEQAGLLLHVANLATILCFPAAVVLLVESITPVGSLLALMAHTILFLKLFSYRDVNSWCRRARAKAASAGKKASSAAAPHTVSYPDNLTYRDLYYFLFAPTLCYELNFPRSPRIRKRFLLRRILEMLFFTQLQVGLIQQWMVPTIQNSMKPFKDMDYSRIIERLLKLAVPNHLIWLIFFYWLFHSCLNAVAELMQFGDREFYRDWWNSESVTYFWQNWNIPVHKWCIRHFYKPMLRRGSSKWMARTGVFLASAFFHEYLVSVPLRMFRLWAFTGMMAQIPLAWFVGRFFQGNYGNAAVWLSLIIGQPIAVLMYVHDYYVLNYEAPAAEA
Assay: DGAT-1 Reduced Microsome Multidose Assay, G7329F Human IC50
Format: biochemical
Details: crude membrane fraction of Sf9 cells expressing human DGAT-1; [14C]decanoylCoA; apparent IC50, average where tested more than once
Experimental: Human full-length diacylglycerol:acylCoA acyltransferase 1 (DGAT-1) was expressed in Sf9 insect cells which are then lysed and a crude membrane fraction (105,000×g pellet) was prepared. The DGAT-1 gene is a human DGAT-1 gene described in J Biol Chem 273:26765 (1998) and U.S. Pat. No. 6,100,077.
In vitro inhibition of DGAT-1 was measured using a modification, further described below, of the assay methodology described in U.S. Pat. No. 6,994,956 B2.
The cells were cultured as follows. Sf9 cells (20 L) were infected with 4 mL of DGAT-1 Baculovirus Infected Insect Cells (BIIC) for 72 hours in a Wave Bioreactor System 20/50P (Wave Biotec/GE Healthcare).
Crude DGAT-1 microsomes were prepared as follows. Cell pellets were washed once with ice-cold Dulbecco's phosphate-buffered saline. Cells were collected in tabletop centrifuge (Beckman GS-6KR), 15 minutes, 2000×g, 4° C. Twenty (20) mL of ice-cold Microsome Buffer (MB) was added per 5 g of cell pellet. The suspension was passed through a microfluidizer 3 times (18K psi). The lysate was transferred to centrifuge tubes and centrifuged for 20 minutes at 5000×g (Beckman-Coulter, Inc. Allegra® 64R High-Speed Refrigerated Benchtop Centrifuge, F0650 rotor) at 4° C. The supernatant was transferred to ultracentrifuge tubes and centrifuged at 125,000×g for 1 hour in a Beckman Ti-45 rotor, 4° C. The supernatant fluid was discarded. The pellet was resuspended in 70 mL of MB by sonication. The microsome concentration was determined using Bio-Rad Protein DC Protein Assay. The microsomes were filter sterilized with a 0.22 μm filter. The samples were portioned, flash frozen and stored at −80° C.
The Microsome Buffer, used for microsome preparation, was prepared by conventional means and contained 125 mM sucrose, 3 mM imidazole, 0.2 μg/mL aprotinin, 0.2 μg/mL leupeptin and 5 mM dithiothreitol (Cleland's reagent), DGAT-1 activity was measured in 384-well format in a total assay volume of 25 μl that contained, Hepes buffer (50 mM, pH 7.5), MgCl2 (10 mM), bovine serum albumin (0.6 mg/ml), [^14C]decanoylCoA (20 μM, 58 Ci/mol) and membranes (25 μg/ml) into which 1,2 dioleoyl-sn-glycerol (75 μM) in acetone has already been incorporated. Inhibitors in DMSO were pre-incubated with membranes before initiating the DGAT-1 reaction by the addition of decanoylCoA. […] The DMSO concentration was 2.5%. The inhibitors were present at a range of eight concentrations to generate an apparent IC50 for each compound. The eight inhibitor concentration employed ranged from 10 μM to 3 nM (from high to low concentration). Specifically, the eight concentrations used were 10 μM, 3 μM, 1 μM, 300 nM, 100 nM, 30 nM, 10 nM and 3 nM.
Reaction mixtures were neutralized by the addition of 15 μl of tris(hydroxy-methyl)aminomethane (1M, pH 8.0) and then mixed by trituration with 37.5 μl of Microscint™-E (Perkin Elmer). Plates contents were allowed to partition for 15 to 30 min before ^14C was measured in a scintillation spectrometer (Wallac Microbeta Trilux 1450-030 liquid scintillation counter 12 detector in the top-count DPM mode). Percent inhibition of test compounds was computed as […].
Four separate assays were performed using 4 different methods of analysis. The method of analysis of Assay 1 was the same as Assay 4 (described above) except microsomes were utilized at 25 μg/mL instead of 5 μg/mL. The method of analysis of Assay 2 was the same as Assay 4 (described above) except eleven (11) concentrations of inhibitor were employed instead of eight (8). The method of analysis of Assay 3 was the same as Assay 2 except the compounds were serially diluted in a different laboratory.
Where this DGAT-1 inhibition assay was performed on a compound more than once, an average is provided for that compound.

| IC50 | SMILES |
| --- | --- |
| 90.4 nM | COc1nc(N)c2c(n1)CCN(c1ccc(OC(F)(F)F)cc1)C2=O [Example 1A, 4-amino-2-methoxy-6-[4-(trifluoromethoxy)phenyl]-7,8-dihydropyrido[4,3-d]pyrimidin-5(6H)-one] |
| 52.7 nM | CCc1ccc(N2CCc3nc(OC)nc(N)c3C2=O)cc1 [Example 1B, 4-amino-6-(4-ethylphenyl)-2-methoxy-7,8-dihydropyrido[4,3-d]pyrimidin-5(6H)-one] |
| 11 nM | COc1nc(N)c2c(n1)CCN(c1ccc(CC3CC3)cc1)C2=O [Example 1C, 4-amino-6-[4-(cyclopropylmethyl)phenyl]-2-methoxy-7,8-dihydropyrido[4,3-d]pyrimidin-5(6H)-one] |
| 40.4 nM | COc1nc(N)c2c(n1)CCN(c1ccc3c(c1)CCC3)C2=O [Example 1D, 4-amino-6-(2,3-dihydro-1H-inden-5-yl)-2-methoxy-7,8-dihydropyrido[4,3-d]pyrimidin-5(6H)-one] |
| 28.8 nM | COc1nc(N)c2c(n1)CCN(c1ccc(C3CC3)cc1)C2=O [Example 1E, 4-amino-6-(4-cyclopropylphenyl)-2-methoxy-7,8-dihydropyrido[4,3-d]pyrimidin-5(6H)-one] |
| 9.66 nM | COc1nc(N)c2c(n1)CCN(c1ccc(C(C)C)c(F)c1)C2=O [Example 1G, 4-amino-6-(3-fluoro-4-isopropylphenyl)-2-methoxy-7,8-dihydropyrido[4,3-d]pyrimidin-5(6H)-one] |
| 57.6 nM | COc1nc(N)c2c(n1)CCN(c1ccc(C3CC(F)(F)C3)cc1)C2=O [Example 1H, 4-amino-6-[4-(3,3-difluorocyclobutyl)phenyl]-2-methoxy-7,8-dihydropyrido[4,3-d]pyrimidin-5(6H)-one] |
| 95.8 nM | COc1nc(N)c2c(n1)CCN(c1ccc([C@H]3C[C@H](O)C3)cc1)C2=O [Example 1I, 4-amino-6-[4-(trans-3-hydroxycyclobutyl)phenyl]-2-methoxy-7,8-dihydropyrido[4,3-d]pyrimidin-5(6H)-one] |
| 59.8 nM | COc1nc(N)c2c(n1)CCN(c1ccc([C@H]3C[C@@H](O)C3)cc1)C2=O [Example 1J, 4-amino-6-[4-(cis-3-hydroxycyclobutyl)phenyl]-2-methoxy-7,8-dihydropyrido[4,3-d]pyrimidin-5(6H)-one] |
| 35.9 nM | COc1nc(N)c2c(n1)CCN(c1ccc(C3(CO)CCC3)cc1)C2=O [Example 1O, 4-amino-6-{4-[1-(hydroxymethyl)cyclobutyl]phenyl}-2-methoxy-7,8-dihydropyrido[4,3-d]pyrimidin-5(6H)-one] |
| 67.1 nM | COc1nc(N)c2c(n1)CCN(c1ccc(C3(C(=O)O)CCC3)cc1)C2=O [Example 1P, 1-[4-(4-amino-2-methoxy-5-oxo-7,8-dihydropyrido[4,3-d]pyrimidin-6(5H)-yl)phenyl]cyclobutanecarboxylic acid] |
| 52.9 nM | COc1nc(N)c2c(n1)CCN(c1ccc(C(C)(C)CO)cc1)C2=O [Example 1T, 4-amino-6-[4-(2-hydroxy-1,1-dimethylethyl)phenyl]-2-methoxy-7,8-dihydropyrido[4,3-d]pyrimidin-5(6H)-one] |
| 5.19 nM | COc1nc(N)c2c(n1)CCN(c1ccc(C(O)(C(F)(F)F)C(F)(F)F)cc1)C2=O [Example 1X, 4-amino-2-methoxy-6-{4-[2,2,2-trifluoro-1-hydroxy-1-(trifluoromethyl)ethyl]phenyl}-7,8-dihydropyrido[4,3-d]pyrimidin-5(6H)-one] |
| 46 nM | COc1nc(N)c2c(n1)CCN(c1ccc(C(O)C(F)(F)F)cc1)C2=O (stereo not shown) [Example 1Y, 4-amino-2-methoxy-6-[4-(2,2,2-trifluoro-1-hydroxyethyl)phenyl]-7,8-dihydropyrido[4,3-d]pyrimidin-5(6H)-one] |
| 4.92 nM | COc1nc(N)c2c(n1)CCN(c1ccc(CC(C)C)cc1)C2=O [Example 1Z, 4-amino-6-(4-isobutylphenyl)-2-methoxy-7,8-dihydropyrido[4,3-d]pyrimidin-5(6H)-one] |
| 50.3 nM | COC(=O)c1ccc(N2CCc3nc(OC)nc(N)c3C2=O)cc1 [Example 2A, Methyl 4-(4-amino-2-methoxy-5-oxo-7,8-dihydropyrido[4,3-d]pyrimidin-6(5H)-yl)benzoate] |
| 177 nM | COc1nc(N)c2c(n1)CCN(c1ccc(C(C)(C)O)cc1)C2=O [Example 2B, 4-amino-6-[4-(1-hydroxy-1-methylethyl)phenyl]-2-methoxy-7,8-dihydropyrido[4,3-d]pyrimidin-5(6H)-one] |
| 86.6 nM | COc1nc(N)c2c(n1)CCN(c1ccc(C(C)(C)F)cc1)C2=O [Example 2C, 4-amino-6-[4-(1-fluoro-1-methylethyl)phenyl]-2-methoxy-7,8-dihydropyrido[4,3-d]pyrimidin-5(6H)-one] |
| 34.6 nM | COc1nc(N)c2c(n1)CCN(c1ccc(C(C)(C)OC)cc1)C2=O [Example 2D, 4-amino-2-methoxy-6-[4-(1-methoxy-1-methylethyl)phenyl]-7,8-dihydropyrido[4,3-d]pyrimidin-5(6H)-one] |
| 1480 nM | COc1nc(N)c2c(n1)CCN(c1ccc(C(=O)O)cc1)C2=O [Example 2E, 4-(4-amino-2-methoxy-5-oxo-7,8-dihydropyrido[4,3-d]pyrimidin-6(5H)-yl)benzoic acid] |
| 74.4 nM | COc1nc(N)c2c(n1)CCN(c1ccc(C(=O)OC3CCCCC3)cc1)C2=O [Example 2G, Cyclohexyl 4-(4-amino-2-methoxy-5-oxo-7,8-dihydropyrido[4,3-d]pyrimidin-6(5H)-yl)benzoate] |
| 1370 nM | COc1nc(N)c2c(n1)CCN(c1ccc(C(=O)N(C)C)cc1)C2=O [Example 2H, 4-(4-amino-2-methoxy-5-oxo-7,8-dihydropyrido[4,3-d]pyrimidin-6(5H)-yl)-N,N-dimethylbenzamide] |
| 13.7 nM | COC(=O)C(C)(C)c1ccc(N2CCc3nc(OC)nc(N)c3C2=O)cc1 [Example 3A, methyl 2-[4-(4-amino-2-methoxy-5-oxo-7,8-dihydropyrido[4,3-d]pyrimidin-6(5H)-yl)phenyl]-2-methylpropanoate] |
| 46.2 nM | COc1nc(N)c2c(n1)CCN(c1ccc(C(C)(C)C(=O)O)cc1)C2=O [Example 3D, 2-[4-(4-amino-2-methoxy-5-oxo-7,8-dihydropyrido[4,3-d]pyrimidin-6(5H)-yl)phenyl]-2-methylpropanoic acid] |
| 51.5 nM | COc1nc(N)c2c(n1)CCN(c1ccc(C(C)(C)c3nc(C)no3)cc1)C2=O [Example 3F, 4-amino-2-methoxy-6-{4-[1-methyl-1-(3-methyl-1,2,4-oxadiazol-5-yl)ethyl]phenyl}-7,8-dihydropyrido[4,3-d]pyrimidin-5(6H)-one] |
